These results are taken from US20250109107A1, “AROMATIC RING-FUSED HETEROCYCLIC RING COMPOUND AS POTASSIUM CHANNEL REGULATOR, AND PREPARATION THEREFOR AND USE THEREOF” (Shanghai Zhimeng Biopharma, Inc., priority 2022, published 2025).

For this assay, the target named is T1, KCNQ2 potassium channels (CHO-KCNQ2 cells) (Homo sapiens, UniProt O43526).
T1 construct: expressed in transfected cells; host or cells: CHO cells stably expressing KCNQ2 (G418 selection in the culture medium)
Put plainly: Potassium ion channel opener activity test (FDSS/μCELL detection, FluxOR thallium flux). Particulars: for EC50: 8 concentrations 0.045-100 μM, 3 replicate wells; for Maximum agonist rate (%): highest test concentration 100 μM, ratio of 180 s. In kind it is cell-based. How it is done: Example A1 Potassium Ion Channel Opener Activity Test (FDSS/p CELL Detection)
Cell preparation: CHO-KCNQ2 cells were cultured in a 175 cm^2 culture flask, and when the cell density grew to 60˜80%, the culture medium was removed and the cells were washed once with 7 mL PBS (Phosphate Buffered Saline), and then 3 mL of 0.25% Trypsin was added for digestion. After completion of digestion, 7 mL of culture medium (90% DMEM/F12+10% FBS+500 μg/mL G418) was added to neutralize, and centrifuged at 800 rpm for 3 min; the supernatant was aspirated, then 5 mL of culture medium was added to resuspend the cells, and the cells were counted.
Cell spreading: according to the cell counting results, the density was adjusted to 3×10^4 cells/well. After standing at room temperature for 30 minutes, the cells were placed in a CO2 incubator at 37° C. overnight, and incubated for 16-18 hours to reach a cell density of about 80%.
Fluorescent dye incubation: Cell culture solution was discarded, 80 μL/well of loading buffer was added and the cells were incubated for 60 minutes at room temperature and protected from light.
Compound incubation: Loading buffer was discarded, 80 μL/well of prepared compound solution was added, and the cells were incubated for 20 min at room temperature and protected from light.
Fluorescence data acquisition: Real-time fluorescence signal recording was performed using an FDSS/pCELL instrument with an excitation wavelength of 480 nm and an emission wavelength of 540 nm, and the signal was recorded once per second. 10 seconds of the baseline was recorded, then 20 μL/well of stimulation buffer was added, and the recording was continued until the end of 180 seconds.
Loading buffer: 10 mL/plate, prepared as follows:
Stimulation buffer: 5 mL/plate, prepared as follows:
The above buffers were obtained from a commercially available kit called FluxOR potassium ion channel assay.
20 mM stock solution of compound in DMSO was prepared, 10 μL of 20 mM compound stock solution was taken into 20 μL of DMSO solution, and a 3-fold serial dilution was performed to form 8 intermediate concentrations; then the intermediate concentrations of the compounds were taken respectively into test buffer, and a 200-fold dilution was performed to obtain the final concentration to be tested, and 80 μL of compound was taken and added to the assay plate.
The highest test concentration was 100 μM, and there was a total of8 concentrations. i.e., 100, 33.33, 11.11, 3.70, 1.23, 0.41, 0.137, 0.045 μM, respectively, with 3 replicate wells for each concentration.
The experimental data were analyzed by Excel 2007, GraphPad Prism 5.0 software, and the ratio of 180 s was counted to calculate the agonistic effect. The compound agonistic effect was calculated by the following equation: […]

T1 sequence (O43526 whole entry): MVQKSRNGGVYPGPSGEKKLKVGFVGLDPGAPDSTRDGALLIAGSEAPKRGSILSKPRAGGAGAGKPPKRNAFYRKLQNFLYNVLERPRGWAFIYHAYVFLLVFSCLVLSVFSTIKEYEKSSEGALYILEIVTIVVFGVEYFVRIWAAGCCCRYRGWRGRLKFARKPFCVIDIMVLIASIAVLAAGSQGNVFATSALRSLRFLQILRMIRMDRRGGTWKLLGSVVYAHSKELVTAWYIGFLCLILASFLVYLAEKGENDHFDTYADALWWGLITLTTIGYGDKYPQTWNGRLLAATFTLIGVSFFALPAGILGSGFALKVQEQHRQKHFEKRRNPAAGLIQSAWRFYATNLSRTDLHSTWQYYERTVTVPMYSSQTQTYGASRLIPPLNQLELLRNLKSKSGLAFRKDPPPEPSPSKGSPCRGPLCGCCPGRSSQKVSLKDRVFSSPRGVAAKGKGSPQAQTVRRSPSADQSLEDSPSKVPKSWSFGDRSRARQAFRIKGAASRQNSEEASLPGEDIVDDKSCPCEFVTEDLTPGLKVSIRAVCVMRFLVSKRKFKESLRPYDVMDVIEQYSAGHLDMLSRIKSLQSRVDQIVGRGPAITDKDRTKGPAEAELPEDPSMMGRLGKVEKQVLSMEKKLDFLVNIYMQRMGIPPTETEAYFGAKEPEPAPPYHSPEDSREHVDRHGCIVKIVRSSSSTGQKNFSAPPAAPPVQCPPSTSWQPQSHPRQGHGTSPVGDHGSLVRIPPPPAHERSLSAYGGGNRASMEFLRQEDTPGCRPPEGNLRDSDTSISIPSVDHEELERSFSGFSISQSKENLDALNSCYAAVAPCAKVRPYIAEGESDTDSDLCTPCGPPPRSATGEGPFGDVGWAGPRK

Consider `Cc1cc2c(c(C)c1NC(=O)CC1(C)CC1)CN(c1ccc(F)cc1)CC2` [Compound 3001], for which the EC50 (commonly the concentration that produces a half-maximal response) is 400 nM and the “Maximum agonist rate (%)” value was determined as 36.30%.

Regarding `Cc1cc2c(c(C)c1NC(=O)CC1(C)CC1)CN(c1ccc(C(F)(F)F)cc1)CC2` [Compound 3002], the midpoint of the response, the EC50, lay at 59 nM and the “Maximum agonist rate (%)” value stood at 38.96%.
